Data reported in ChEMBL document CHEMBL3120092, “Discovery of GS-9669, a thumb site II non-nucleoside inhibitor of NS5B for the treatment of genotype 1 chronic hepatitis C infection” (J Med Chem, 2014).
pEC50: −log10 of the molar value.

Test system: Hepatitis C virus
Assay: Antiviral activity against HCV infected in human patient assessed as log10 reduction in viral RNA in plasma at 500 mg/kg, qd after 3 days
Assay type: functional, Hepacivirus hominis
Conditions: not given

Structure (SMILES)	FC
CC1=CC[C@H](C(=O)N(c2cc(C#CC(C)(C)C)sc2C(=O)O)[C@H]2CC[C@](O)(CO[C@H]3CCOC3)CC2)CC1 [RADALBUVIR]	3.6

Test system: not listed separately
Assay: Half life in human patient infected with chronic HCV
Assay type: ADME, organism-based
Conditions: in vivo

Structure (SMILES)	half-life
CC1=CC[C@H](C(=O)N(c2cc(C#CC(C)(C)C)sc2C(=O)O)[C@H]2CC[C@](O)(CO[C@H]3CCOC3)CC2)CC1 [RADALBUVIR]	6 h

Test system: Hepatitis C virus
Assay: Selectivity ratio of EC50 for HCV genotype 1b harboring NS5B polymerase M423T mutant to EC50 for HCV genotype 1b harboring wild type NS5B polymerase
Assay type: functional, Hepacivirus hominis
Conditions: not given

Structure (SMILES)	Ratio EC50
CC(C)N(c1cc(C#CC(C)(C)C)sc1C(=O)O)C(=O)[C@H]1CC[C@H](C)CC1	11
CC(C)(C)C#Cc1cc(N(C(=O)[C@H]2CC[C@H](C)CC2)[C@H]2CC[C@](O)(CO[C@H]3CCOC3)CC2)c(C(=O)O)s1	4
CC1=CC[C@H](C(=O)N(c2cc(C#CC(C)(C)C)sc2C(=O)O)C(C)C)CC1	5
CC1=CC[C@H](C(=O)N(c2cc(C#CC(C)(C)C)sc2C(=O)O)[C@H]2CC[C@](O)(CO[C@H]3CCOC3)CC2)CC1 [RADALBUVIR]	2

Test system: Hepatitis C virus
Assay: Antiviral activity against HCV genotype 1b harboring NS5B polymerase M423T mutant infected in human HuH7-Lunet cells by luciferase reporter gene assay
Assay type: functional, organism-based, Hepacivirus hominis
Conditions: Huh-7

Structure (SMILES)	pEC50
CC(C)N(c1cc(C#CC(C)(C)C)sc1C(=O)O)C(=O)[C@H]1CC[C@H](C)CC1	6.53
CC(C)(C)C#Cc1cc(N(C(=O)[C@H]2CC[C@H](C)CC2)[C@H]2CC[C@](O)(CO[C@H]3CCOC3)CC2)c(C(=O)O)s1	7.33
CC1=CC[C@H](C(=O)N(c2cc(C#CC(C)(C)C)sc2C(=O)O)C(C)C)CC1	7.40
CC1=CC[C@H](C(=O)N(c2cc(C#CC(C)(C)C)sc2C(=O)O)[C@H]2CC[C@](O)(CO[C@H]3CCOC3)CC2)CC1 [RADALBUVIR]	7.85

Test system: Hepatitis C virus
Assay: Antiviral activity against HCV genotype 1b harboring wild type NS5B polymerase infected in human HuH7-Lunet cells by luciferase reporter gene assay
Assay type: functional, organism-based, Hepacivirus hominis
Conditions: Huh-7

Structure (SMILES)	pEC50
CC(C)(C)C#Cc1cc(N(C(=O)[C@H]2CC[C@H](C)CC2)[C@H]2CC[C@](O)(CO[C@H]3CCOC3)CC2)c(C(=O)O)s1	7.92
CC1=CC[C@H](C(=O)N(c2cc(C#CC(C)(C)C)sc2C(=O)O)C(C)C)CC1	8.10
CC1=CC[C@H](C(=O)N(c2cc(C#CC(C)(C)C)sc2C(=O)O)[C@H]2CC[C@](O)(CO[C@H]3CCOC3)CC2)CC1 [RADALBUVIR]	8.22

Test system: not listed separately
Assay: Intrinsic cytotoxicity against human MT4 cells after 5 days by Cell Titre Glo assay
Assay type: cell-based
Conditions: not given

Structure (SMILES)	CC50 at 120 h
CC(C)(C)C#Cc1cc(N(C(=O)[C@H]2CC[C@H](C)CC2)[C@H]2CC[C@H](Oc3ccccn3)CC2)c(C(=O)O)s1	100 nM
CC(C)(C)C#Cc1cc(N(C(=O)[C@H]2CC[C@H](C)CC2)[C@H]2CC[C@H](Oc3ccncn3)CC2)c(C(=O)O)s1	599 nM
CC(C)(C)C#Cc1cc(N(C(=O)[C@H]2CC[C@H](C)CC2)[C@H]2CC[C@H](Oc3ccc4nccn4n3)CC2)c(C(=O)O)s1	133 nM
CC(C)(C)C#Cc1cc(N(C(=O)[C@H]2CC[C@H](C)CC2)[C@H]2CC[C@H](Oc3ccc(=O)[nH]n3)CC2)c(C(=O)O)s1	1480 nM
CC(C)(C)C#Cc1cc(N(C(=O)[C@H]2CC[C@H](C)CC2)[C@H]2CC[C@](O)(CO[C@H]3CCOC3)CC2)c(C(=O)O)s1	8980 nM
CC1=CC[C@H](C(=O)N(c2cc(C#CC(C)(C)C)sc2C(=O)O)[C@H]2CC[C@](O)(CO[C@H]3CCOC3)CC2)CC1 [RADALBUVIR]	12100 nM

Test system: not listed separately
Assay: Lipophilicity, log D of the compound by chromatography
Assay type: physicochemical
Conditions: not given

Structure (SMILES)	chromatographic logD
CC(C)(C)C#Cc1cc(N(C(=O)[C@H]2CC[C@H](C)CC2)[C@H]2CC[C@H](Oc3ccccn3)CC2)c(C(=O)O)s1	3
CC(C)(C)C#Cc1cc(N(C(=O)[C@H]2CC[C@H](C)CC2)[C@H]2CC[C@H](Oc3ccncn3)CC2)c(C(=O)O)s1	2.3
CC(C)(C)C#Cc1cc(N(C(=O)[C@H]2CC[C@H](C)CC2)[C@H]2CC[C@H](Oc3ccc4nccn4n3)CC2)c(C(=O)O)s1	2.4
CC(C)(C)C#Cc1cc(N(C(=O)[C@H]2CC[C@H](C)CC2)[C@H]2CC[C@H](Oc3ccc(=O)[nH]n3)CC2)c(C(=O)O)s1	2
CC(C)(C)C#Cc1cc(N(C(=O)[C@H]2CC[C@H](C)CC2)[C@H]2CC[C@](O)(CO[C@H]3CCOC3)CC2)c(C(=O)O)s1	2.4

Test system: Hepatitis C virus
Assay: Antiviral activity against Hepatitis C virus H77 genotype 1a infected in human HuH7 cells assessed as plasma adjusted antiviral potency after 72 hrs by luciferase reporter gene assay
Assay type: functional, organism-based, Hepacivirus hominis
Conditions: genotype 1a H77, Huh-7, Plasma

Structure (SMILES)	pEC50
CC(C)(C)C#Cc1cc(N(C(=O)[C@H]2CC[C@H](C)CC2)[C@H]2CC[C@H](Oc3ccccn3)CC2)c(C(=O)O)s1	5.98
CC(C)(C)C#Cc1cc(N(C(=O)[C@H]2CC[C@H](C)CC2)[C@H]2CC[C@H](Oc3ccncn3)CC2)c(C(=O)O)s1	5.86
CC(C)(C)C#Cc1cc(N(C(=O)[C@H]2CC[C@H](C)CC2)[C@H]2CC[C@H](Oc3ccc4nccn4n3)CC2)c(C(=O)O)s1	5.95
CC(C)(C)C#Cc1cc(N(C(=O)[C@H]2CC[C@H](C)CC2)[C@H]2CC[C@H](Oc3ccc(=O)[nH]n3)CC2)c(C(=O)O)s1	6.55
CC(C)(C)C#Cc1cc(N(C(=O)[C@H]2CC[C@H](C)CC2)[C@H]2CC[C@](O)(CO[C@H]3CCOC3)CC2)c(C(=O)O)s1	6.68
CC1=CC[C@H](C(=O)N(c2cc(C#CC(C)(C)C)sc2C(=O)O)[C@H]2CC[C@](O)(CO[C@H]3CCOC3)CC2)CC1 [RADALBUVIR]	6.89

Test system: not listed separately
Assay: Mean residence time in Sprague-Dawley rat at 0.4 mg/kg, iv
Assay type: ADME, organism-based
Parameters: dose 0.4 mg/kg, route intravenous
Conditions: in vivo

Structure (SMILES)	MRT
CC(C)(C)C#Cc1cc(N(C(=O)[C@H]2CC[C@H](C)CC2)[C@H]2CC[C@H](Oc3ccc4nccn4n3)CC2)c(C(=O)O)s1	6.2 h

Test system: not listed separately
Assay: Mean residence time in Sprague-Dawley rat at 0.5 mg/kg, iv
Assay type: ADME, organism-based
Parameters: dose 0.5 mg/kg, route intravenous
Conditions: in vivo

Structure (SMILES)	MRT
CC(C)(C)C#Cc1cc(N(C(=O)[C@H]2CC[C@H](C)CC2)[C@H]2CC[C@H](Oc3ccncn3)CC2)c(C(=O)O)s1	7.1 h
CC(C)(C)C#Cc1cc(N(C(=O)[C@H]2CC[C@H](C)CC2)[C@H]2CC[C@H](Oc3ccc(=O)[nH]n3)CC2)c(C(=O)O)s1	1.6 h
CC(C)(C)C#Cc1cc(N(C(=O)[C@H]2CC[C@H](C)CC2)[C@H]2CC[C@](O)(CO[C@H]3CCOC3)CC2)c(C(=O)O)s1	3.8 h
CC1=CC[C@H](C(=O)N(c2cc(C#CC(C)(C)C)sc2C(=O)O)[C@H]2CC[C@](O)(CO[C@H]3CCOC3)CC2)CC1 [RADALBUVIR]	2.7 h

Test system: not listed separately
Assay: Cytotoxicity against human HuH7 cells after 3 days by Cell Titre Glo assay
Assay type: cell-based, Huh-7
Conditions: not given

Structure (SMILES)	CC50 at 72 h
CC(C)N(c1cc(C#CC(C)(C)C)sc1C(=O)O)C(=O)[C@H]1CC[C@H](C)CC1	≥ 20000 nM

Test system: Hepatitis C virus
Assay: Antiviral activity against Hepatitis C virus H77 genotype 1a infected in human HuH7 cells assessed as intrinsic antiviral potency after 72 hrs by luciferase reporter gene assay
Assay type: functional, organism-based, Hepacivirus hominis
Conditions: genotype 1a H77, Huh-7, 72 h

Structure (SMILES)	pEC50
CC(C)N(c1cc(C#CC(C)(C)C)sc1C(=O)O)C(=O)[C@H]1CC[C@H](C)CC1	8.26
CC(C)(C)C#Cc1cc(N(C(=O)[C@H]2CC[C@H](C)CC2)[C@H]2CC[C@H](Oc3ccccn3)CC2)c(C(=O)O)s1	8.60
CC(C)(C)C#Cc1cc(N(C(=O)[C@H]2CC[C@H](C)CC2)[C@H]2CC[C@H](Oc3ccncn3)CC2)c(C(=O)O)s1	8.55
CC(C)(C)C#Cc1cc(N(C(=O)[C@H]2CC[C@H](C)CC2)[C@H]2CC[C@H](Oc3ccc4nccn4n3)CC2)c(C(=O)O)s1	8.89
CC(C)(C)C#Cc1cc(N(C(=O)[C@H]2CC[C@H](C)CC2)[C@H]2CC[C@H](Oc3ccc(=O)[nH]n3)CC2)c(C(=O)O)s1	8.46
CC(C)(C)C#Cc1cc(N(C(=O)[C@H]2CC[C@H](C)CC2)[C@H]2CC[C@](O)(CO[C@H]3CCOC3)CC2)c(C(=O)O)s1	8.66
CC1=CC[C@H](C(=O)N(c2cc(C#CC(C)(C)C)sc2C(=O)O)C(C)C)CC1	8.66
CC1=CC[C@H](C(=O)N(c2cc(C#CC(C)(C)C)sc2C(=O)O)[C@H]2CC[C@](O)(CO[C@H]3CCOC3)CC2)CC1 [RADALBUVIR]	8.54

Test system: Hepatitis C virus
Assay: Antiviral activity against Hepatitis C virus H77 genotype 1a infected in human HuH7 cells assessed as observed antiviral potency after 72 hrs by luciferase reporter gene assay
Assay type: functional, organism-based, Hepacivirus hominis
Conditions: genotype 1a H77, Huh-7, 72 h

Structure (SMILES)	pEC50
CC(C)(C)C#Cc1cc(N(C(=O)[C@H]2CC[C@H](C)CC2)[C@H]2CC[C@H](Oc3ccccn3)CC2)c(C(=O)O)s1	6.53
CC(C)(C)C#Cc1cc(N(C(=O)[C@H]2CC[C@H](C)CC2)[C@H]2CC[C@H](Oc3ccncn3)CC2)c(C(=O)O)s1	7.12
CC(C)(C)C#Cc1cc(N(C(=O)[C@H]2CC[C@H](C)CC2)[C@H]2CC[C@H](Oc3ccc4nccn4n3)CC2)c(C(=O)O)s1	6.72
CC(C)(C)C#Cc1cc(N(C(=O)[C@H]2CC[C@H](C)CC2)[C@H]2CC[C@H](Oc3ccc(=O)[nH]n3)CC2)c(C(=O)O)s1	7.41
CC1=CC[C@H](C(=O)N(c2cc(C#CC(C)(C)C)sc2C(=O)O)C(C)C)CC1	7.51
CC1=CC[C@H](C(=O)N(c2cc(C#CC(C)(C)C)sc2C(=O)O)[C@H]2CC[C@](O)(CO[C@H]3CCOC3)CC2)CC1 [RADALBUVIR]	7.96

Test system: not listed separately
Assay: Fraction unbound in cell culture medium at 2 uM at pH 7.4 by equilibrium dialysis method
Assay type: ADME
Conditions: not given

Structure (SMILES)	fraction unbound at 2 µM
CC(C)N(c1cc(C#CC(C)(C)C)sc1C(=O)O)C(=O)[C@H]1CC[C@H](C)CC1	0.06
CC1=CC[C@H](C(=O)N(c2cc(C#CC(C)(C)C)sc2C(=O)O)C(C)C)CC1	0.07

Test system: not listed separately
Assay: Cytotoxicity against human MT4 cells after 5 days by Cell Titre Glo assay
Assay type: cell-based
Conditions: not given

Structure (SMILES)	CC50 at 120 h
CC(C)N(c1cc(C#CC(C)(C)C)sc1C(=O)O)C(=O)[C@H]1CC[C@H](C)CC1	> 20000 nM
CC(C)(C)C#Cc1cc(N(C(=O)[C@H]2CC[C@H](C)CC2)[C@H]2CC[C@H](Oc3ccccn3)CC2)c(C(=O)O)s1	> 20000 nM
CC(C)(C)C#Cc1cc(N(C(=O)[C@H]2CC[C@H](C)CC2)[C@H]2CC[C@H](Oc3ccncn3)CC2)c(C(=O)O)s1	> 20000 nM
CC(C)(C)C#Cc1cc(N(C(=O)[C@H]2CC[C@H](C)CC2)[C@H]2CC[C@H](Oc3ccc4nccn4n3)CC2)c(C(=O)O)s1	> 20000 nM
CC(C)(C)C#Cc1cc(N(C(=O)[C@H]2CC[C@H](C)CC2)[C@H]2CC[C@H](Oc3ccc(=O)[nH]n3)CC2)c(C(=O)O)s1	> 20000 nM
CC(C)(C)C#Cc1cc(N(C(=O)[C@H]2CC[C@H](C)CC2)[C@H]2CC[C@](O)(CO[C@H]3CCOC3)CC2)c(C(=O)O)s1	> 20000 nM
CC1=CC[C@H](C(=O)N(c2cc(C#CC(C)(C)C)sc2C(=O)O)C(C)C)CC1	> 20000 nM
CC1=CC[C@H](C(=O)N(c2cc(C#CC(C)(C)C)sc2C(=O)O)[C@H]2CC[C@](O)(CO[C@H]3CCOC3)CC2)CC1 [RADALBUVIR]	> 20000 nM

Test system: not listed separately
Assay: Mean residence time in Sprague-Dawley rat at 1 mg/kg, iv
Assay type: ADME, organism-based
Parameters: dose 1 mg/kg, route intravenous
Conditions: in vivo

Structure (SMILES)	MRT
CC(C)(C)C#Cc1cc(N(C(=O)[C@H]2CC[C@H](C)CC2)[C@H]2CC[C@H](Oc3ccccn3)CC2)c(C(=O)O)s1	5 h
